We go through 34 compounds from ChEMBL document CHEMBL6182937, “Design, Synthesis, and Anti-ischemic Stroke Activity Evaluation of Novel GSNOR Inhibitors” (J Med Chem, 2025).

Active and inactive are the calls of the source.

The term inhibition denotes the drop in the measured response relative to a control, in per cent. The term IC50 denotes the point on the concentration scale where inhibition reaches its midpoint. As a reminder, the bioavailability is dose-corrected exposure relative to a reference, in per cent. One may read the half-life as the time needed for the level to fall by half in the phase considered. Broadly, the Tmax is the time at which the peak concentration occurs. In general, Cmax refers to the peak of the concentration-time curve. Broadly, the AUC(0-t) is exposure summed from dosing to a finite time, without extrapolation to infinity. Usually MRT last stands for a mean duration of stay, worked out from the concentration-time curve. For orientation: clearance means a measure of how efficiently the substance is removed, as volume per time.

Series [1] is filed under the species Homo sapiens. Nature of the series: Inhibition of GSNOR (unknown origin) at 1 uM in presence of NADH incubated for 10 mins by microplate reader analysis relative to control.
The nature of series [2]: Inhibition of GSNOR (unknown origin) in presence of NADH incubated for 10 mins by microplate reader analysis. More on the design: species or system Homo sapiens.
The species named for series [3] is Homo sapiens. Nature of the series: Inhibition of GSNOR (unknown origin) at 10 uM relative to control.
Series [4] relates to SH-SY5Y. Nature of the series: Neuroprotective activity against OGD/R-induced human […] cell injury model assessed as increase in cell viability at 10 uM measured for 24 hrs by CCK-8 assay. It counts as functional, cell-based.
For series [5], the system named is Rattus norvegicus. Nature of the series: Neuroprotective activity against tMCAO- induced brain injury in Sprague-Dawley rat model assessed as reduction in infarct volume at 5 mg/kg, iv measured up to 24 hrs by TTC staining based analysis (reference value: 36.35 +/- 4.05%). It is filed as functional. Also noted: scale not given: the % may be the effect or the level left.

In series [6] the test system is Rattus norvegicus. Nature of the series: Neuroprotective activity against tMCAO- induced brain injury in Sprague-Dawley rat model assessed as reduction in infarct volume at 10 mg/kg, iv measured up to 24 hrs by TTC staining based analysis (reference value: 36.35 +/- 4.05%). It is filed as functional. More on the design: scale not given: the % may be the effect or the level left.

Series [7] in a line: Inhibition of GSNOR (unknown origin). Also noted: species or system Homo sapiens.
For the next series, the target named is T1, CYP1A2 (Homo sapiens, UniProt P05177).
T1 sequence (P05177 whole entry): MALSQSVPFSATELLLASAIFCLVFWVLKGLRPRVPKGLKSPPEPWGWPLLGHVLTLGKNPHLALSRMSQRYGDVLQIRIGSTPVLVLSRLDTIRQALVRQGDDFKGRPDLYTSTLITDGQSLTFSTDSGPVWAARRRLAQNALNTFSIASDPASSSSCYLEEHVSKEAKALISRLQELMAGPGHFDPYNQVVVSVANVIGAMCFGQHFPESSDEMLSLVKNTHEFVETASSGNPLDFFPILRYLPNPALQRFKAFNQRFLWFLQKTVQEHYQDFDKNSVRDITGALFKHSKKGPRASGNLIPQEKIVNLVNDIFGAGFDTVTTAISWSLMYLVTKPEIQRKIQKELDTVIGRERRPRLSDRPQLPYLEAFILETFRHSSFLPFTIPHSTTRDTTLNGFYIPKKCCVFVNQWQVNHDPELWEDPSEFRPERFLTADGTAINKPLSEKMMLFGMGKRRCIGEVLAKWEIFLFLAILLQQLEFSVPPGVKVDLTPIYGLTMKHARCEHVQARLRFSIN
Nature of the series: Inhibition of human CYP1A2 in human liver microsome at 10 uM relative to control. It is filed as ADME. Conditions: human liver microsomes.

For another series, the target named is CYP2C9 (Homo sapiens, UniProt P11712). Nature of the series: Inhibition of human CYP2C9 in human liver microsome at 10 uM relative to control. The settings on record: human liver microsomes. It counts as ADME. A general note: Microsomes from liver hold many membrane-bound enzymes, among them those of drug oxidation.
Chain of CYP2C9 (P11712 whole entry): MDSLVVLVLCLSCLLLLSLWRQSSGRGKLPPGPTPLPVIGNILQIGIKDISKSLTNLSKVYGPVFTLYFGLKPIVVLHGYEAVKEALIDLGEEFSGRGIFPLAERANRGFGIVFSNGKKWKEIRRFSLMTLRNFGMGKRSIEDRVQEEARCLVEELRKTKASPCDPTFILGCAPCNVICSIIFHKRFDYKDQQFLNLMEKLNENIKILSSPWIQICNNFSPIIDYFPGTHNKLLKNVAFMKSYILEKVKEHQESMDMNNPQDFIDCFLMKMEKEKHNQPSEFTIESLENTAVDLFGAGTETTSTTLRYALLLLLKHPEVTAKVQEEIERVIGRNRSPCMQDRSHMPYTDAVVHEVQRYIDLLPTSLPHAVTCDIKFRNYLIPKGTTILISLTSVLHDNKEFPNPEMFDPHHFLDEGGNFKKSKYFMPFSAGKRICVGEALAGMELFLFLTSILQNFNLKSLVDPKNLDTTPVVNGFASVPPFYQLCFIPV
The target of the next series is CYP2C19 (Homo sapiens, UniProt P33261). The series can be described thus: Inhibition of human CYP2C19 in human liver microsome at 10 uM relative to control. It counts as ADME. The settings on record: human liver microsomes.
Chain of CYP2C19 (P33261 whole entry): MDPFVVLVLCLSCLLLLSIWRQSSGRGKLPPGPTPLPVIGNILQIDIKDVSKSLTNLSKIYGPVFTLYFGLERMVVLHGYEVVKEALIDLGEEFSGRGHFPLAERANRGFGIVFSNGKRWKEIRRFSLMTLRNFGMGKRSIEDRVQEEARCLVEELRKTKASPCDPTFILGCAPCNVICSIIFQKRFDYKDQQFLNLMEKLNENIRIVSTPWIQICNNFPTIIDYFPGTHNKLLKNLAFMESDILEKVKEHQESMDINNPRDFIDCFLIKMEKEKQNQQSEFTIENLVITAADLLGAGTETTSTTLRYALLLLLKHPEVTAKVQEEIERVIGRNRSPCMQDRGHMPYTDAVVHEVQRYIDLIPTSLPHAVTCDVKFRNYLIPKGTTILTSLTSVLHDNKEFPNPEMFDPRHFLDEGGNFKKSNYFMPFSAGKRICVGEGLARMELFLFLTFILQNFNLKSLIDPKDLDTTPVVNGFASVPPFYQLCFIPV
The target in another series is CYP2D6 (Homo sapiens, UniProt P10635). Nature of the series: Inhibition of human CYP2D6 in human liver microsome at 10 uM relative to control. It counts as ADME. Conditions: human liver microsomes.
Chain of CYP2D6 (P10635 whole entry): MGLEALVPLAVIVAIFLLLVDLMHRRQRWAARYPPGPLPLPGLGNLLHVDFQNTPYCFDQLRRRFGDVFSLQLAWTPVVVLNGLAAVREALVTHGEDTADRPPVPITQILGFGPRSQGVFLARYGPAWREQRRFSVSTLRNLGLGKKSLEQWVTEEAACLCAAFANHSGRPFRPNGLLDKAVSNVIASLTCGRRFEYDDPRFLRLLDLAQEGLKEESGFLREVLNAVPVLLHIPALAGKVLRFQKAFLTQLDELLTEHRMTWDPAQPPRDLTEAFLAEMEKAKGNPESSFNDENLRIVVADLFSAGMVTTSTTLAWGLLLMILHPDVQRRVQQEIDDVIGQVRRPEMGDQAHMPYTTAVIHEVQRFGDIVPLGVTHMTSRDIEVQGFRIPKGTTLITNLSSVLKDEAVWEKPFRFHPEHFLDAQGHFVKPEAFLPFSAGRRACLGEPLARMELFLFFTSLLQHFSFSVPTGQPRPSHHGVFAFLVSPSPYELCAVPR
The target in a further series is CYP3A4 (Homo sapiens, UniProt P08684). Nature of the series: Inhibition of human CYP3A4 in human liver microsome at 10 uM relative to control. Conditions: human liver microsomes. It counts as ADME.
Chain of CYP3A4 (P08684 whole entry): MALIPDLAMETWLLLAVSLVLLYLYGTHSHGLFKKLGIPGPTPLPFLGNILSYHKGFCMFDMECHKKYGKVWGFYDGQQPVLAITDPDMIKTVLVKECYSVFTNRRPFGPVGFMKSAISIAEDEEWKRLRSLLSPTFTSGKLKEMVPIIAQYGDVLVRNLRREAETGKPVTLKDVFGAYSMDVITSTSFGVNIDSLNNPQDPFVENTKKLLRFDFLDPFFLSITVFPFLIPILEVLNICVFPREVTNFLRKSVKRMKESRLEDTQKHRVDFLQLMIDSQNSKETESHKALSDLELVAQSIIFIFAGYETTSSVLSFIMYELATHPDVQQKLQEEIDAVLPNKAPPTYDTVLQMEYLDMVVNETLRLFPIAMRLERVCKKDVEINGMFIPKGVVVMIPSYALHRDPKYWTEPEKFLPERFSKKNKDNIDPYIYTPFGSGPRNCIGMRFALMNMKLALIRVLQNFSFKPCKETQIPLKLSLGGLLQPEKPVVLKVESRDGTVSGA
For series [8], the system named is SH-SY5Y. The series can be described thus: Cytotoxicity against human SH-SY5Y cells up to 40 uM incubated for 24 hrs by CCK-8 assay. It is filed as functional, cell-based. (Tetrazolium assays rely on reduction of a dye to a coloured formazan, in cell work by metabolically active cells.)
A short description of series [9]: Oral bioavailability in male C57BL/6 mouse at 10 mg/kg by LC-MS/MS analysis. It counts as ADME, organism-based. Conditions: in vivo.
The nature of series [10]: Half life in Sprague-Dawley rat at 10 mg/kg, iv by LC-MS/MS analysis. It counts as ADME, organism-based. The settings on record: in vivo.
Series [11] can be described thus: Tmax in Sprague-Dawley rat at 10 mg/kg, iv by LC-MS/MS analysis. Conditions: in vivo. It is filed as ADME, organism-based.
Series [12] is described as follows: Cmax in Sprague-Dawley rat at 10 mg/kg, iv by LC-MS/MS analysis. It counts as ADME, organism-based. Conditions: in vivo.
Series [13] can be described thus: AUC (0 to t) in Sprague-Dawley rat at 10 mg/kg, iv by LC-MS/MS analysis. It counts as ADME, organism-based. The settings on record: in vivo.
A short description of series [14]: MRT (0 to t) in Sprague-Dawley rat at 10 mg/kg, iv by LC-MS/MS analysis. It counts as ADME, organism-based. Conditions: in vivo.
Series [15] is described as follows: Clearance in Sprague-Dawley rat at 10 mg/kg, iv by LC-MS/MS analysis. It counts as ADME, organism-based. The settings on record: in vivo.

On to `Cc1cc(C(N)=O)ccc1-n1c(-c2ccc(-c3ccncc3)cc2)cc2ccc(C(=O)O)cc21`, for which the inhibition in the series listed under Homo sapiens [1] is 12.5%. `O=C(O)c1ccc2cc(-c3ccc(-n4ccnc4)cc3)n(Cc3ccc(N4CCCC4=O)cc3)c2c1`: the inhibition in the series listed under Homo sapiens [1] is 85.5%. Consider `Cc1cc(C(N)=O)ccc1-n1c(-c2ccc(N3CCN(C)CC3)cc2)cc2ccc(C(=O)O)cc21`, for which the inhibition in the series filed under Homo sapiens [1] was -0.36%.

With `NC(=O)c1ccc(-n2c(-c3ccc(-n4ccnc4)cc3)cc3ccc(C(=O)O)cc32)cc1Cl`, the 50% inhibitory concentration (IC50) in series [2] came out at 0.0511 µM. Also, the inhibition in the series filed under Homo sapiens [1] was 93.3%. With `NC(=O)c1ccc(Cn2c(-c3ccc(-n4ccnc4)cc3)cc3ccc(C(=O)O)cc32)cc1`, the half-inhibitory concentration (IC50) in [2] is 0.0423 µM. The inhibition in the series filed under Homo sapiens [1] came to 22.4%. As to `O=C(O)c1ccc2cc(-c3ccccc3)n(Cc3ccc(F)cc3)c2c1`, the inhibition in the series filed under Homo sapiens [3] stood at 32.4%. With `Cc1cc(C(N)=O)ccc1-n1c(-c2ccc(-c3cn(C)nc3C)cc2)cc2ccc(C(=O)O)cc21`, the inhibition in the series filed under Homo sapiens [1] came out at 2.44%. Take `Cc1cc(C(N)=O)ccc1-n1c(-c2ccc(-n3ccnc3)cc2)cc2ccc(C(=O)O)cc21`: in series [2], the IC50 was determined as 0.192 µM. Further, in the series filed under Homo sapiens [1], the inhibition was found to be 81.2%. On to `N#Cc1ccc(Cn2c(-c3ccc(-n4ccnc4)cc3)cc3ccc(C(=O)O)cc32)cc1`, for which the IC50 in [2] was found to be 0.0546 µM. Besides, the inhibition in the series filed under Homo sapiens [1] stood at 35.1%. For `NC(=O)c1cccc(Cn2c(-c3ccc(-n4ccnc4)cc3)cc3ccc(C(=O)O)cc32)c1`, the inhibition in the series listed under Homo sapiens [1] came out at 3.84%.

Take `O=C(O)c1ccc2cc(-c3ccc(-n4ccnc4)cc3)n(Cc3ccc(Br)cc3)c2c1`: the half-maximal inhibitory concentration (IC50) in series [2] was 0.0844 µM. Besides, in the series filed under Homo sapiens [1], the inhibition came to 81.6%. For the compound `Cc1cc(C(N)=O)ccc1-n1c(CCC(=O)O)ccc1-c1ccc(-n2ccnc2)cc1` [N6022], the half-inhibitory concentration (IC50) in series [2] amounted to 0.0847 µM. The inhibition in the series filed under Homo sapiens [1] is 90.3%. In addition, the result in the series on SH-SY5Y [4] was Active. In addition, the Activity in the series on Rattus norvegicus [5] and in the series on Rattus norvegicus [6] was 25.26% in each case.

Regarding `N[C@@H](CCC(=O)N[C@@H](CSN=O)C(=O)NCC(=O)O)C(=O)O` [S-NITROSOGLUTATHIONE], the outcome in the series on SH-SY5Y [4] was Active. Also, in the series with Rattus norvegicus [5], the Activity turned out to be 25.26%.

As for `NC(=O)c1ccc(-n2c(-c3ccc(-n4ccnc4)cc3)cc3ccc(C(=O)O)cc32)cc1Br`, the inhibition in the series listed under Homo sapiens [1] was determined as 76.6%. Take `O=C(O)c1ccc2cc(-c3ccc(-n4ccnc4)cc3)n(Cc3ccc(Cl)cc3)c2c1`: in series [2], the IC50 is 0.171 µM. In the series filed under Homo sapiens [1], the inhibition worked out at 28.1%. Regarding `Cc1cc(C(N)=O)ccc1-n1c(-c2ccc(O)cc2)cc2ccc(C(=O)O)cc21`, in the series listed under Homo sapiens [1], the inhibition was found to be 33.7%. For the compound `N#Cc1cccc(Cn2c(-c3ccc(-n4ccnc4)cc3)cc3ccc(C(=O)O)cc32)c1`, the IC50 in series [2] was determined as 0.102 µM. Besides, the inhibition in the series listed under Homo sapiens [1] was determined as 84.4%.

Compound `O=C(O)c1ccc2cc(-c3ccc(-n4ccnc4)cc3)n(Cc3ccc(F)cc3)c2c1` displayed an IC50 in series [7] of 0.649 µM. Take `Cc1cc(C(N)=O)ccc1-n1c(-c2ccc(N3CCOCC3)cc2)cc2ccc(C(=O)O)cc21`: the inhibition in the series listed under Homo sapiens [1] was -0.76%. On to `Cc1cc(C(N)=O)ccc1-n1c(-c2ccc(-c3cccnc3)cc2)cc2ccc(C(=O)O)cc21`, for which, in the series filed under Homo sapiens [1], the inhibition is 22.2%.

As for `NC(=O)c1ccc(-n2c(-c3ccc(-n4ccnc4)cc3)cc3ccc(C(=O)O)cc32)cc1C(F)(F)F`, the inhibition in the series listed under Homo sapiens [1] is 50.9%.

As to `NC(=O)c1ccc(-n2c(-c3ccc(-n4ccnc4)cc3)cc3ccc(C(=O)O)cc32)cc1O`, the IC50 in series [2] was 0.0603 µM. The inhibition in the series filed under Homo sapiens [1] was found to be 97%. As to `Cc1cc(C(N)=O)ccc1-n1c(-c2ccc(-c3cn(C)nc3C(F)(F)F)cc2)cc2ccc(C(=O)O)cc21`, in the series filed under Homo sapiens [1], the inhibition stood at 0.93%. In the case of `CC(C)Oc1cc(-n2c(-c3ccc(-n4ccnc4)cc3)cc3ccc(C(=O)O)cc32)ccc1C(N)=O`, the 50% inhibitory concentration (IC50) in [2] was 0.0583 µM. Also, in the series listed under Homo sapiens [1], the inhibition came to 92.3%. On to `N#Cc1ccc(Cn2c(-c3ccc(-n4ccnc4)cc3)cc3ccc(C(=O)O)cc32)cc1F`, for which, in the series listed under Homo sapiens [1], the inhibition came to 88.9%. As for `Cc1cc(-n2c(-c3ccc(-n4ccnc4)cc3)cc3ccc(C(=O)O)cc32)ccc1C(N)=O`, the inhibition in the series listed under Homo sapiens [1] came to 72.2%. For the compound `CCOc1cc(-n2c(-c3ccc(-n4ccnc4)cc3)cc3ccc(C(=O)O)cc32)ccc1C(N)=O`, the 50% inhibitory concentration (IC50) in series [2] stood at 0.0441 µM. Also, the inhibition in the series listed under Homo sapiens [1] is 95.1%. Also, the inhibition at 10 µM was determined as 16.6% on CYP1A2; 75% against CYP2C9; 70.1% at CYP2C19; 59.2% against CYP2D6; 81.5% at CYP3A4. Moreover, the result in the series on SH-SY5Y [8] and in the series with SH-SY5Y [4] was Active. Besides, the bioavailability in series [9] turned out to be 6.64%. Further, the half-life in [10] is 51 min. Moreover, the Tmax in series [11] stood at 19.8 min. This compound yielded a Cmax in [12] of 2.93 µg/mL. In addition, in series [13], the AUC(0-t) was 3.51 µg·h/mL. The compound also showed a mean residence time (MRT last) in [14] of 63 min. In series [15], this compound gave a clearance of 2.91 L/h/kg. In the case of `NC(=O)c1ccc(-n2c(-c3ccc(-n4ccnc4)cc3)cc3ccc(C(=O)O)cc32)cn1`, in the series filed under Homo sapiens [1], the inhibition was 60.7%. As for `Cc1cc(C(N)=O)ccc1-n1c(-c2ccc(-c3ccc(=O)[nH]c3)cc2)cc2ccc(C(=O)O)cc21`, the inhibition in the series filed under Homo sapiens [1] stood at 5.7%.

For `CN(C)S(=O)(=O)c1ccc(Cn2c(-c3ccc(-n4ccnc4)cc3)cc3ccc(C(=O)O)cc32)cc1`, the inhibition in the series filed under Homo sapiens [1] was 94.3%. As to `N#Cc1ccc(-n2c(-c3ccc(-n4ccnc4)cc3)cc3ccc(C(=O)O)cc32)cc1`, in the series filed under Homo sapiens [1], the inhibition worked out at 22.4%. With `NC(=O)c1ccc(-n2c(-c3ccc(-n4ccnc4)cc3)cc3ccc(C(=O)O)cc32)cc1`, the 50% inhibitory concentration (IC50) in series [2] was 0.312 µM. Besides, the inhibition in the series filed under Homo sapiens [1] amounted to 81.7%.

As for `Cc1cc(C(N)=O)ccc1-n1c(-c2ccc(NS(N)(=O)=O)cc2)cc2ccc(C(=O)O)cc21`, the inhibition in the series filed under Homo sapiens [1] was 14.8%. With `O=C(O)c1ccc2cc(-c3ccc(-n4ccnc4)cc3)n(Cc3ccc(SC(F)(F)F)cc3)c2c1`, the IC50 in series [2] is 0.0711 µM. In addition, the inhibition in the series filed under Homo sapiens [1] was determined as 89.7%.
